These results are taken from patent US12708649B2, “Compositions and methods for improving skin health and for the treatment and prevention of diseases, disorders and conditions associated with fungi and other pathogenic microbes” (priority 2020, dated 2026).

≈ marks a conversion by molar mass, not a printed value. Read-outs that look alike come from different tables or passages of the source.

One test concerns DB02473. Nature of the test: Antibiotic MIC tests. It counts as cell-based.
A further test concerns DB10033. Description: Antibiotic MIC tests. It counts as cell-based, Bacillus altitudinis. The conditions noted are these: Bacillus altitudinis.
A further test deals with DB00376. Description: Antibiotic MIC tests. Format: cell-based.
For a further test, the system named is DB05646. Nature of the test: Antibiotic MIC tests. It counts as cell-based, Alcaligenes faecalis. The conditions noted are these: Alcaligenes faecalis.
The next test deals with E. coli ATCC 25922. The conditions noted are these: MIC; cited from earlier work.
[1] abbreviates: 24 h; read-out: MIC, DB02473 24 hr.
The mark [2] stands for this setting: 48 h; read-out: MIC, DB02473 48 hr.
Where [3] appears, read: 24 h, read-out: MIC, DB10033 24 hr.
Setting [4] is: 48 h, read-out: MIC, DB10033 48 hr.
Where [5] appears, read: 24 h, read-out: MIC, DB00376 24 hr.
The mark [6] stands for this setting: 48 h, read-out: MIC, DB00376 48 hr.
Setting [7] is: 24 h, read-out: MIC, DB05646 24 hr.
[8] abbreviates: 48 h, read-out: MIC, DB05646 48 hr.

Take `NCC[C@H](O)C(=O)N[C@@H]1C[C@H](N)[C@@H](O[C@H]2O[C@H](CN)[C@@H](O)[C@H](O)[C@H]2O)[C@H](O)[C@H]1O[C@H]1O[C@H](CO)[C@@H](O)[C@H](N)[C@H]1O` [Amikacin]: the MIC in the test with DB02473 (setting [1]) amounted to 0.25 µg/mL (≈ 0.427 µM); in the test on DB02473 (setting [2]), 0.25 µg/mL (≈ 0.427 µM); in the test with DB10033 (setting [3]) it was 0.5 µg/mL (≈ 0.854 µM); in the test with DB10033 (setting [4]), 2 µg/mL (≈ 3.42 µM); in the test on DB00376 (setting [5]), 0.5 µg/mL (≈ 0.854 µM); with DB00376 (setting [6]), 1 µg/mL (≈ 1.71 µM). Also, the MIC with DB05646 (setting [7]) and in the test on DB05646 (setting [8]) was 4 µg/mL (≈ 6.83 µM) throughout. Besides, the “E. coli ATCC 25922 CLSI QC Range” value in the test with E. coli ATCC 25922 is given as 0.5-4^ μg/mL.

`CC[C@H]1OC(=O)[C@H](C)[C@@H](O[C@H]2C[C@@](C)(OC)[C@@H](O)[C@H](C)O2)[C@H](C)[C@@H](O[C@@H]2O[C@H](C)C[C@H](N(C)C)[C@H]2O)[C@](C)(O)C[C@@H](C)CN(C)[C@H](C)[C@@H](O)[C@]1(C)O` [Azithromycin]: the MIC in the test on DB02473 (setting [1]) was determined as 0.5 µg/mL (≈ 0.668 µM); in the test on DB10033 (setting [3]), 0.2 µg/mL (≈ 0.267 µM); with DB10033 (setting [4]), 0.2 µg/mL (≈ 0.267 µM); in the test on DB00376 (setting [5]) it was 0.25 µg/mL (≈ 0.334 µM); with DB00376 (setting [6]) it was 1 µg/mL (≈ 1.34 µM); in the test with DB05646 (setting [7]), 2 µg/mL (≈ 2.67 µM). In the test on DB05646 (setting [8]), the MIC was 2 µg/mL (≈ 2.67 µM).

Take `C[C@H]1[C@H](NC(=O)/C(=N\OC(C)(C)C(=O)O)c2csc(N)n2)C(=O)N1S(=O)(=O)O` [Aztreonam]: the MIC was > 64 µg/mL in the test with DB02473 (setting [1]); > 64 µg/mL in the test on DB02473 (setting [2]); > 64 µg/mL with DB10033 (setting [3]); > 64 µg/mL with DB10033 (setting [4]); 16 µg/mL (≈ 36.7 µM) in the test on DB00376 (setting [5]); > 64 µg/mL in the test with DB00376 (setting [6]). The MIC in the test with DB05646 (setting [7]) and in the test on DB05646 (setting [8]) was 32 µg/mL (≈ 73.5 µM) throughout. Also, in the test on E. coli ATCC 25922, the “E. coli ATCC 25922 CLSI QC Range” value was 0.06 to 0.25 µg/mL.

Turning to `CO/N=C(\C(=O)N[C@@H]1C(=O)N2C(C(=O)[O-])=C(C[N+]3(C)CCCC3)CS[C@H]12)c1csc(N)n1` [Cefepime], the MIC amounted to 2 µg/mL (≈ 4.16 µM) in the test on DB02473 (setting [1]); 4 µg/mL (≈ 8.32 µM) in the test on DB02473 (setting [2]); 64 µg/mL (≈ 133 µM) in the test with DB10033 (setting [3]); 64 µg/mL (≈ 133 µM) in the test on DB10033 (setting [4]); 1 µg/mL (≈ 2.08 µM) with DB00376 (setting [5]); 64 µg/mL (≈ 133 µM) with DB00376 (setting [6]). Moreover, the MIC in the test on DB05646 (setting [7]) was found to be 4 µg/mL (≈ 8.32 µM); with DB05646 (setting [8]), 8 µg/mL (≈ 16.6 µM). For the same molecule, the “E. coli ATCC 25922 CLSI QC Range” value in the test on E. coli ATCC 25922 was 0.016 to 0.12 µg/mL.

Turning to `CO/N=C(\C(=O)N[C@@H]1C(=O)N2C(C(=O)O)=C(CSc3nc(=O)c(=O)[nH]n3C)CS[C@H]12)c1csc(N)n1` [Ceftriaxone], the MIC with DB02473 (setting [1]) worked out at 4 µg/mL (≈ 7.21 µM); with DB02473 (setting [2]) it was 16 µg/mL (≈ 28.9 µM); in the test on DB10033 (setting [3]), 16 µg/mL (≈ 28.9 µM); in the test with DB10033 (setting [4]), 16 µg/mL (≈ 28.9 µM); in the test with DB00376 (setting [5]) it was 2 µg/mL (≈ 3.61 µM); in the test on DB00376 (setting [6]), 4 µg/mL (≈ 7.21 µM). Further, the minimal inhibitory concentration (MIC) in the test with DB05646 (setting [7]) and with DB05646 (setting [8]) was 0.25 µg/mL (≈ 0.451 µM) in each case. The “E. coli ATCC 25922 CLSI QC Range” value in the test with E. coli ATCC 25922 is 0.03 to 0.12 µg/mL.

As to `O=C(N[C@H](CO)[C@H](O)c1ccc([N+](=O)[O-])cc1)C(Cl)Cl` [Chloramphenicol], the MIC amounted to 4 µg/mL (≈ 12.4 µM) with DB02473 (24 h, read-out: MIC, DB02473 24 hr); 16 µg/mL (≈ 49.5 µM) in the test on DB02473 (48 h, read-out: MIC, DB02473 48 hr); 2 µg/mL (≈ 6.19 µM) with DB10033 (setting [3]); 4 µg/mL (≈ 12.4 µM) in the test with DB10033 (setting [4]); 2 µg/mL (≈ 6.19 µM) in the test with DB00376 (setting [5]); 8 µg/mL (≈ 24.8 µM) in the test on DB00376 (setting [6]). For the same molecule, the values for the MIC in the test with DB05646 (setting [7]) and with DB05646 (setting [8]) were 8 µg/mL (≈ 24.8 µM) and 16 µg/mL (≈ 49.5 µM), respectively.

`[H]/N=C(\N/C(=N/[H])NCCCCCCNC(=N)NC(=N)Nc1ccc(Cl)cc1)Nc1ccc(Cl)cc1` [Chlorhexidine]: the MIC is 1 µg/mL (≈ 1.98 µM) in the test with DB02473 (setting [1]); 1 µg/mL (≈ 1.98 µM) in the test on DB10033 (setting [3]); 2 µg/mL (≈ 3.96 µM) in the test with DB10033 (setting [4]); 0.5 µg/mL (≈ 0.989 µM) in the test with DB00376 (setting [5]); 1 µg/mL (≈ 1.98 µM) with DB00376 (setting [6]); 32 µg/mL (≈ 63.3 µM) in the test with DB05646 (setting [7]). Moreover, the MIC with DB05646 (setting [8]) is 32 µg/mL (≈ 63.3 µM).

With `O=C(O)c1cn(C2CC2)c2cc(N3CCNCC3)c(F)cc2c1=O` [Ciprofloxacin], the MIC in the test on DB02473 (setting [1]) was ≤ 0.06 µg/mL; with DB02473 (setting [2]), 0.125 µg/mL (≈ 0.377 µM); with DB10033 (setting [3]) it was 0.125 µg/mL (≈ 0.377 µM); with DB10033 (setting [4]), 1 µg/mL (≈ 3.02 µM); in the test on DB00376 (setting [5]), 0.0625 µg/mL (≈ 0.189 µM); in the test with DB00376 (setting [6]), 0.5 µg/mL (≈ 1.51 µM). For the same molecule, the MIC in the test on DB05646 (setting [7]) and in the test on DB05646 (setting [8]) was 2 µg/mL (≈ 6.04 µM) each time.

In the case of `CCC[C@@H]1C[C@@H](C(=O)N[C@@H]([C@H]2O[C@H](SC)[C@H](O)[C@@H](O)[C@H]2O)[C@H](C)Cl)N(C)C1` [Clindamycin], the MIC in the test on DB02473 (setting [1]) was found to be 0.5 µg/mL (≈ 1.18 µM); in the test with DB02473 (setting [2]), 2 µg/mL (≈ 4.71 µM); in the test with DB10033 (setting [3]), 0.125 µg/mL (≈ 0.294 µM); with DB10033 (setting [4]) it was 2 µg/mL (≈ 4.71 µM); with DB00376 (setting [5]), 1 µg/mL (≈ 2.35 µM); with DB00376 (setting [6]) it was 4 µg/mL (≈ 9.41 µM). Further, the minimal inhibitory concentration (MIC) in the test with DB05646 (setting [7]) and in the test on DB05646 (setting [8]) was > 64 µg/mL throughout.

What is called MIC is the lowest concentration that inhibits growth of the organism.
